Here are results for 16 compounds from patent US8309581B2, “Benzimidazole derivatives” (Hoffmann-La Roche Inc., priority 2009, dated 2012).

Structures are written as SMILES.

The target in the assay is T1, FXR ligand binding domain (Homo sapiens, UniProt Q96RI1).
T1 construct: made in house; host or cells: E. coli BL21 (pLysS)
T1 sequence (Q96RI1 193-472 isoform Q96RI1-2): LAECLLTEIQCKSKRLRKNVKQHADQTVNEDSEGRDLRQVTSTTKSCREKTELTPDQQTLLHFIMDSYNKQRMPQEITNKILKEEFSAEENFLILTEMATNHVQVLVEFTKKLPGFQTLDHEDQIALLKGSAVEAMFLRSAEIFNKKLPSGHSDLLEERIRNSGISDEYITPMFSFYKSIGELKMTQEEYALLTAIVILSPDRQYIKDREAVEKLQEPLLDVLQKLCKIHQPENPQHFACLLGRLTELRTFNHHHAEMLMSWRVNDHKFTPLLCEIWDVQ
Put plainly: Radioligand Binding Assay (scintillation proximity radioligand displacement). Conditions: GST-FXR LBD fusion protein on SPA beads, test compound 6×10^−9 M to 2.5×10^−5 M. In short, it runs like this: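 GST-fused human FXR LBD (aa 193-473, E. coli-expressed, 40 nM) was bound to glutathione SPA beads in 50 mM Hepes pH 7.4, 10 mM NaCl, 5 mM MgCl2, 0.01% CHAPS. Displacement of radioligand (e.g. 20 nM) was measured over 6×10^−9 to 2.5×10^−5 M compound, and IC50 calculated.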
A general note: Scintillation proximity formats need no separation of bound from free tracer.

The compound `FC1(F)CCC(Cn2c(-c3ccccc3CCc3ccc(-c4nnn[nH]4)cc3)nc3ccccc32)CC1` [Example 81, 1-(4,4-Difluoro-cyclohexylmethyl)-2-(2-{2-[4-(1H-tetrazol-5-yl)-phenyl]-ethyl}-phenyl)-1H-benzoimidazole] returned an IC50 of 40 nM. For `CC1CCC(Cn2c(-c3ccccc3CCc3ccc(-c4nnn[nH]4)cc3)nc3ccccc32)CC1` (stereo not shown) [Example 82, 1-(4-Methyl-cyclohexylmethyl)-2-(2-{2-[4-(1H-tetrazol-5-yl)-phenyl]-ethyl}-phenyl)-1H-benzoimidazole] the value was 10 nM.

Compound `c1ccc(-c2nc3ccccc3n2CCC2CCCCC2)c(CCc2ccc(-c3nnn[nH]3)cc2)c1` [Example 83, 1-(2-Cyclohexyl-ethyl)-2-(2-{2-[4-(1H-tetrazol-5-yl)-phenyl]-ethyl}-phenyl)-1H-benzoimidazole] gave an IC50 of 10 nM.

In turn, `O=C(Nc1cc(Cl)ccc1-c1nc2cc(F)c(F)cc2n1CC1CCCCC1)c1ccc(-c2nnn[nH]2)cc1F` [Example 84, N-[5-Chloro-2-(1-cyclohexylmethyl-5,6-difluoro-1H-benzoimidazol-2-yl)-phenyl]-2-fluoro-4-(1H-tetrazol-5-yl)-benzamide] came in with an IC50 of 0.2 nM. In turn, `O=C(Nc1cc(Cl)ccc1-c1nc2cc(F)c(F)cc2n1CC1CCCCC1)c1ccc(-c2nnn[nH]2)c(F)c1` [Example 85, N-[5-Chloro-2-(1-cyclohexylmethyl-5,6-difluoro-1H-benzoimidazol-2-yl)-phenyl]-3-fluoro-4-(1H-tetrazol-5-yl)-benzamide] displayed an IC50 of 0.6 nM. Next, `O=C(Nc1ccc(-c2nnn[nH]2)cc1F)c1ccccc1-c1nc2cc(F)c(F)cc2n1CC1CCCCC1` [Example 86, 2-(1-Cyclohexylmethyl-5,6-difluoro-1H-benzoimidazol-2-yl)-N-[2-fluoro-4-(1H-tetrazol-5-yl)-phenyl]-benzamide]: 3 nM. For `Fc1cc2nc(-c3ccc(Cl)cc3OCC3CCCCC3)n(Cc3ccc(-c4nnn[nH]4)cc3F)c2cc1F` [Example 87, 2-(4-Chloro-2-cyclohexylmethoxy-phenyl)-5,6-difluoro-1-[2-fluoro-4-(1H-tetrazol-5-yl)-benzyl]-1H-benzoimidazole] the value was 20 nM; for `CCC(CC)COc1cc(Cl)ccc1-c1nc2cc(F)c(F)cc2n1Cc1ccc(-c2nnn[nH]2)cc1F` [Example 88, 2-[4-Chloro-2-(2-ethyl-butoxy)-phenyl]-5,6-difluoro-1-[2-fluoro-4-(1H-tetrazol-5-yl)-benzyl]-1H-benzoimidazole], 10 nM; for `Fc1cc2nc(-c3ccc(Cl)cc3OCC3CC3)n(Cc3ccc(-c4nnn[nH]4)cc3F)c2cc1F` [Example 89, 2-(4-Chloro-2-cyclopropylmethoxy-phenyl)-5,6-difluoro-1-[2-fluoro-4-(1H-tetrazol-5-yl)-benzyl]-1H-benzoimidazole], 60 nM. Next, `Fc1cc2nc(-c3ccc(Cl)cc3OCC3CCOCC3)n(Cc3ccc(-c4nnn[nH]4)cc3F)c2cc1F` [Example 90, 2-[4-Chloro-2-(tetrahydro-pyran-4-ylmethoxy)-phenyl]-5,6-difluoro-1-[2-fluoro-4-(1H-tetrazol-5-yl)-benzyl]-1H-benzoimidazole]: 1600 nM. With `CCCOc1cc(Cl)ccc1-c1nc2cc(F)c(F)cc2n1Cc1ccc(-c2nnn[nH]2)cc1F` [Example 91, 2-(4-Chloro-2-propoxy-phenyl)-5,6-difluoro-1-[2-fluoro-4-(1H-tetrazol-5-yl)-benzyl]-1H-benzoimidazole], the IC50 stood at 50 nM. In turn, `Fc1cc2nc(-c3ccc(Cl)cc3OCC3CCC3)n(Cc3ccc(-c4nnn[nH]4)cc3F)c2cc1F` [Example 92, 2-(4-Chloro-2-cyclobutylmethoxy-phenyl)-5,6-difluoro-1-[2-fluoro-4-(1H-tetrazol-5-yl)-benzyl]-1H-benzoimidazole] had an IC50 of 20 nM. Next, `Fc1cc2nc(-c3ccc(Cl)cc3OCC3CCCCO3)n(Cc3ccc(-c4nnn[nH]4)cc3F)c2cc1F` (stereo not shown) [Example 93, 2-[4-Chloro-2-(tetrahydro-pyran-2-ylmethoxy)-phenyl]-5,6-difluoro-1-[2-fluoro-4-(1H-tetrazol-5-yl)-benzyl]-1H-benzoimidazole]: 60 nM; `Fc1cc2nc(-c3ccccc3OCC3CCCC3)n(Cc3ccc(-c4nnn[nH]4)cc3F)c2cc1F` [Example 94, 2-(2-Cyclopentylmethoxy-phenyl)-5,6-difluoro-1-[2-fluoro-4-(1H-tetrazol-5-yl)-benzyl]-1H-benzoimidazole]: 40 nM. With `Fc1cc(-c2nnn[nH]2)ccc1Cn1c(-c2ccc(Cl)cc2OCC2CCCC2)nc2ccccc21` [Example 95, 2-(4-Chloro-2-cyclopentylmethoxy-phenyl)-1-[2-fluoro-4-(1H-tetrazol-5-yl)-benzyl]-1H-benzoimidazole], the IC50 was determined as 10 nM. Regarding `Fc1cc2nc(-c3ccc(Cl)cc3OC3CCCCC3)n(Cc3ccc(-c4nnn[nH]4)cc3F)c2cc1F` [Example 96, 2-(4-Chloro-2-cyclohexyloxy-phenyl)-5,6-difluoro-1-[2-fluoro-4-(1H-tetrazol-5-yl)-benzyl]-1H-benzoimidazole], the IC50 came to 20 nM.

Broadly, the IC50 is the concentration needed to halve the response being measured.
